Source: patent US11649215B2, “Compositions and methods for the treatment of oral infectious diseases” (Cellix Bio Private Limited, priority 2016, dated 2023)
Values after ≈ are worked out from the molar mass of the structure shown. “Also recorded” adds a separate entry of the source. Read-outs that look alike come from different tables or passages of the source.

Experiments:
[1] = test system: various oral pathogenic microorganisms; conditions: cited from earlier work; for antimicrobial activity among the long-chain fatty acids: comparison among long-chain fatty acids
Candida Species = assay: MIC against the Candida Species; type: cell-based; conditions: conversion of 0.45 μmoles/ml, read-out: MIC (corresponding mass concentration)
Text: Linoleic acid is GRAS listed long chain fatty acid. […] The minimum inhibitory concentration for linoleic acid against Porphyromonas gingivalis was 9 to 78 mcg/ml.

## CCCCCCCCCCCCCCCC(=O)O [palmitic acid]
[1]
  antimicrobial activity among the long-chain fatty acids: greatest antimicrobial activity

## CCCCC/C=C\C/C=C\C/C=C\C/C=C\CCCC(=O)O [arachidonic acid]
[1]
  antimicrobial activity among the long-chain fatty acids: greatest antimicrobial activity

## CCCCCC/C=C\CCCCCCCC(=O)O [palmitoleic acid]
[1]
  antimicrobial activity among the long-chain fatty acids: greatest antimicrobial activity

## CCCCC/C=C\C/C=C\CCCCCCCC(=O)O [Linoleic acid]
[1]
  bactericidal concentration: 25 µg/mL
  antimicrobial activity among the long-chain fatty acids: greatest antimicrobial activity
Candida Species
  MIC: 0.13 µg/mL (≈ 0.464 µM)

## CCCCC/C=C\C/C=C\C/C=C\CCCCC(=O)O [GLA, gamma linoleic acid]
[1]
  antimicrobial activity among the long-chain fatty acids: greatest antimicrobial activity
[1]; in vitro, incl. S. mutans, A. actinomycetemcomitans, C. albicans, P. gingivalis, F. nucleatum, S. gordonii
  antimicrobial activity against oral microorganisms: significant anti-microbial activity; also recorded: antimicrobial activities
[1]; n-6 fatty acids GLA
  bactericidal concentration: 25 µg/mL
